Assay results: the supplement of paper PMC11061612

Experiments:
Assay in all cases: combination Emax (second highest fraction inhibited in the dose matrix, 72 h); higher = more inhibition; extreme values may be limits of the assay
[1] = tested on: SJRH30 (Rhabdomyosarcoma)
Summary of the method: (§1)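 Bliss excess equals the observed combination effect minus the expected value EA + EB − EA·EB, where EA and EB are the effects of each agent alone. Combination Emax is the second-highest inhibition within the matrix. Inhibition was scaled from CellTiter-Glo 2.0 luminescence, with 0 set by vehicle wells and 1 by blank wells, after 72 hours of two-drug dosing of cells plated in 1536-well plates.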

[2] = tested on: RERF-LC-KJ (Lung Adenocarcinoma)
Summary of the method: as §1

[3] = tested on: PANC-02-03 (Pancreatic Carcinoma)
Summary of the method: as §1

[4] = tested on: NCI-H1623 (Lung Adenocarcinoma)
Summary of the method: as §1

[5] = tested on: EB-3 (Burkitt's Lymphoma)
Summary of the method: as §1

[6] = tested on: HSC-3 (Oral Cavity Carcinoma)
Summary of the method: as §1

[7] = tested on: SNU-175 (Colorectal Carcinoma)
Summary of the method: as §1

HuO-3N1 (Osteosarcoma) = tested on: HuO-3N1 (Osteosarcoma)
Summary of the method: as §1

[8] = tested on: KYSE-70 (Esophageal Squamous Cell Carcinoma)
Summary of the method: as §1

[9] = tested on: SW684 (Other Solid Carcinomas)
Summary of the method: as §1

ES-2 (Ovarian Carcinoma) = tested on: ES-2 (Ovarian Carcinoma)
Summary of the method: as §1

[10] = tested on: SK-MM-2 (Plasma Cell Myeloma)
Summary of the method: as §1

KYM-1 (Rhabdomyosarcoma) = tested on: KYM-1 (Rhabdomyosarcoma)
Summary of the method: as §1

[11] = tested on: Caov-3 (Ovarian Carcinoma)
Summary of the method: as §1

[12] = tested on: OVTOKO (Ovarian Carcinoma)
Summary of the method: as §1

[13] = tested on: NCI-H1563 (Lung Adenocarcinoma)
Summary of the method: as §1

[14] = tested on: AsPC-1 (Pancreatic Carcinoma)
Summary of the method: as §1

[15] = tested on: COLO-684 (Endometrial Carcinoma)
Summary of the method: as §1

[16] = tested on: RPMI-8866 (Chronic Myelogenous Leukemia)
Summary of the method: as §1

[17] = tested on: NCI-H810 (Non-Small Cell Lung Carcinoma)
Summary of the method: as §1

SMILES | combination Emax [1] | combination Emax [2] | combination Emax [3] | combination Emax [4] | combination Emax [5] | combination Emax [6] | combination Emax [7] | combination Emax (HuO-3N1 (Osteosarcoma)) | combination Emax [8] | combination Emax [9] | combination Emax (ES-2 (Ovarian Carcinoma)) | combination Emax [10] | combination Emax (KYM-1 (Rhabdomyosarcoma)) | combination Emax [11] | combination Emax [12] | combination Emax [13] | combination Emax [14] | combination Emax [15] | combination Emax [16] | combination Emax [17]
COc1cccc(OCCCN)c1-c1cc(Nc2cnc(C#N)cn2)n[nH]1 [Prexasertib] + CCc1c2c(nc3ccc(O)cc13)-c1cc3c(c(=O)n1C2)COC(=O)[C@]3(O)CC [SN-38] (first compound max 1 µM, 7x7, partner max 0.3 µM) | 0.984 | 0.903 | 0.756 | 0.987 | 0.87 | 0.937 | 0.734 | 0.808 | 0.869 | 0.642 | 0.988 | 0.875 | 0.97 | 0.984 | 0.532 | 0.629 | 0.41 | 0.956 | 1 | 0.98
COc1cccc(OCCCN)c1-c1cc(Nc2cnc(C#N)cn2)n[nH]1 [Prexasertib] + CN(C)CCCOc1ccc(-c2ccc3ncc4c(c3c2)n(C2CCOCC2)c(=O)n4C)cn1 [AZD0156] (first compound max 1 µM, 7x7, partner max 1 µM) | 0.94 | 0.349 | 0.609 | 0.804 | 0.838 | 0.654 | 0.632 | 0.48 | 0.618 | 0.42 | 0.863 | 0.652 | 0.952 | 0.806 | 0.647 | 0.352 | 0.444 | 0.854 | 1 | 0.877
COc1cccc(OCCCN)c1-c1cc(Nc2cnc(C#N)cn2)n[nH]1 [Prexasertib] + C[C@@H]1COCCN1C2=NC(=NC(=C2)C3(CC3)[S@](=N)(=O)C)C4=C5C=CNC5=NC=C4 [AZD6738] (first compound max 1 µM, 7x7, partner max 10 µM) | 0.943 | 0.278 | 0.639 | 0.827 | 0.83 | 0.731 | 0.616 | 0.432 | 0.602 | 0.451 | 0.867 | 0.634 | 0.956 | 0.785 | 0.516 | 0.262 | 0.416 | 0.864 | 1 | 0.9
COc1cccc(OCCCN)c1-c1cc(Nc2cnc(C#N)cn2)n[nH]1 [Prexasertib] + Cc1cc2ncnn2cc1Nc1ncc2c(n1)n(C1CCOCC1)c(=O)n2C [AZD7648] (first compound max 1 µM, 7x7, partner max 10 µM) | 0.935 | 0.416 | 0.609 | 0.804 | 0.791 | 0.731 | 0.586 | 0.49 | 0.615 | 0.498 | 0.848 | 0.67 | 0.942 | 0.797 | 0.526 | 0.466 | 0.425 | 0.844 | 1 | 0.896
COc1cccc(OCCCN)c1-c1cc(Nc2cnc(C#N)cn2)n[nH]1 [Prexasertib] + O=C(c1cc(Cc2n[nH]c(=O)c3ccccc23)ccc1F)N1CCN(C(=O)C2CC2)CC1 [Olaparib] (first compound max 1 µM, 7x7, partner max 10 µM) | 0.868 | 0.203 | 0.502 | 0.813 | 0.694 | 0.719 | 0.527 | 0.524 | 0.626 | 0.43 | 0.788 | 0.656 | 0.855 | 0.855 | 0.52 | 0.27 | 0.332 | 0.707 | 1 | 0.896
COc1cc2c(cc1OCCCCCOc1cc3c(cc1OC)C(=O)N1C=C(C)C[C@H]1C=N3)N=C[C@@H]1CC(C)=CN1C2=O [SG3199] + O=C(c1cc(Cc2n[nH]c(=O)c3ccccc23)ccc1F)N1CCN(C(=O)C2CC2)CC1 [Olaparib] (first compound max 0.001 µM, 7x7, partner max 10 µM) | 0.122 | 0.148 | 0.0277 | 0.376 | 0.0944 | 0.157 | 0.112 | 0.219 | 0.0678 | 0.0316 | 0.165 | 0.137 | 0.169 | 0.202 | 0.111 | 0.173 | 0.02 | 0.0915 | 0.263 | 0.131
CCc1c2c(nc3ccc(O)cc13)-c1cc3c(c(=O)n1C2)COC(=O)[C@]3(O)CC [SN-38] + CN(C)CCCOc1ccc(-c2ccc3ncc4c(c3c2)n(C2CCOCC2)c(=O)n4C)cn1 [AZD0156] (first compound max 0.3 µM, 7x7, partner max 1 µM) | 0.359 | 0.673 | 0.693 | 0.822 | 0.748 | 0.855 | 0.478 | 0.567 | 0.25 | 0.462 | 0.912 | 0.883 | 0.952 | 0.977 | 0.194 | 0.441 | 0.135 | 0.473 | 0.982 | 0.51
